≈ marks a conversion by molar mass, not a printed value. Entries after “also recorded” stand apart in the source; their conditions may differ.
Experiments:
Type in all cases: physicochemical
[1] = Approximate solubility of Form A in 20 single solvents at RT; conditions: thermodynamic from solid
Method: Approximate solubility of Form A was determined in 20 single solvents at RT, respectively. Approximately 2 mg of Form A was added into a 3-mL glass vial. Corresponding solvents were added stepwise (50 μL-50 μL-200 μL-700 μL) into the vials until the solids were dissolved visually or a total volume of 1 mL was reached. The ranges of approximate solubility were calculated according to the mass of sample, volume of solvent and observation. The results summarized in Table 2 were used to guide the solvent selection in polymorph screening.

[2] = Slurry competition of the six anhydrates in n-butanol (thermodynamic assessment); conditions: all anhydrates in equal mass ratios, RT and 50° C.
Method: A total of six anhydrates, Forms A, C, D, E, N, and Q were observed. A thermodynamic assessment of all anhydrates was performed by slurrying all anhydrates in equal mass ratios in a non-solvating solvent, n-Butanol, at RT and 50° C.

[3] = Slurry competition of Form K and Form C at various water activities (critical water activity); conditions: for Relative stability, Form K vs Form C slurry: EtOH/H2O
From the text: One hydrate (Form K) was observed and found to be a hemi-hydrate. […] It was suspected that EtOH may be forming a solvate that favors the formation of Form K because at higher water activities, the hydrate should be more thermodynamically stable. The values and results for obtaining the critical water activity follows the laws of thermodynamics and the results obtained from this experiment can be transferred to another solvent/H2O system. Additional critical water activity experiments were performed in acetone/H2O at Aw=0.5 and 0.9 using Form K and Form C.

[4] = Ambient drying of wet cake solids, form followed by XRPD
Method: Form A obtained from anti-solvent addition in ACN/H2O was further investigated by analyzing the wet solids by XRPD. The sample was covered with 3511 Kapton film to minimize the solvent evaporation from the wet cake. A unique pattern, different from Form A was observed indicating a labile solvate phase forms in this solvent system.
Form B was obtained by temperature cycling in IPA. The formation of Form B was also observed in IPA slurry at RT and 60° C. Form B was further characterized by analyzing the wet cake by XRPD. The sample on the XRPD sample holder was covered by 3511 Kapton Film to minimize the solvent evaporation from the sample. […] Comparing the KF and TGA results, it was concluded that Form B is an IPA solvate, more specifically, a hemi-solvate determined by calculating the API:Solvent stoichiometry from the TGA weight loss to be 1:0.6.
Form D was obtained by temperature cycling in toluene. The formation of Form D was also observed in 60° C. slurry and slow cooling using toluene. Form D was further characterized by analyzing the wet solids by XRPD. The sample on the XRPD sample holder was covered by 3511 Kapton Film to minimize the solvent evaporation from the sample. […] The minimal weight loss observed indicated an anhydrous phase.
Form E was obtained by temperature cycling in IPAc/MTBE (1:3 v/v). The formation of Form E was also observed in anti-solvent addition, crash cooling, and slurry at RT experiments using MTBE, 2-MeTHF, or toluene. Form E was further characterized by analyzing the wet solids by XRPD. The sample on the XRPD sample holder was covered by 3511 Kapton Film to minimize the solvent evaporation from the sample. […] The minimal weight loss observed indicated an anhydrous phase.
Form F was obtained by temperature cycling in THF/H2O (0.92/0.08 v/v Aw=0.2). The formation of Form F was also observed in RT slurry in THF/H2O at Aw=0.4 and 0.6, and in temperature cycling in THF/H2O (1:3). Form F was further characterized by analyzing the wet solids by XRPD. The sample on the XRPD sample holder was covered by 3511 Kapton film to minimize the solvent evaporation. […] Comparing the KF and TGA results, it was concluded that Form F is likely a THF solvate.

## CC(=O)N/C(N)=N/C(=N\S(=O)(=O)c1ccc(C(F)(F)F)cc1)N1C[C@H](c2ccccc2)C(c2ccc(Cl)cc2)=N1 [Form A, N-{[(S)-{[3-(4-chlorophenyl)-4-phenyl-4,5-dihydro-1H-pyrazol-1-yl][4-(trifluoromethyl)benzenesulfonamido]methylidene}amino]methanimidoyl}acetamide]
[1]; Anisole, organic solvent or mixture
  solubility: > 10 mg/mL
[1]; EtOH, organic solvent or mixture
  solubility: > 10 mg/mL
[1]; IPA, organic solvent or mixture
  solubility: < 3 mg/mL
[1]; MTBE, organic solvent or mixture
  solubility: < 3 mg/mL
[1]; Toluene, organic solvent or mixture
  solubility: 2 to 10 mg/mL (≈ 3.38 to 16.9 mM)
[1]; Water
  solubility: < 3 mg/mL
[1]; n-heptane, organic solvent or mixture
  solubility: < 3 mg/mL
[2]
  Relative thermodynamic stability of anhydrates (outcome of slurry competition): conversion of all anhydrates to Form C

## CC(=O)N/C(N)=N/C(=N\S(=O)(=O)c1ccc(C(F)(F)F)cc1)N1C[C@H](c2ccccc2)C(c2ccc(Cl)cc2)=N1 [Form C, N-{[(S)-{[3-(4-chlorophenyl)-4-phenyl-4,5-dihydro-1H-pyrazol-1-yl][4-(trifluoromethyl)benzenesulfonamido]methylidene}amino]methanimidoyl}acetamide]
[2]
  Relative thermodynamic stability of anhydrates (outcome of slurry competition): thermodynamically most stable anhydrous form; also recorded: most stable anhydrate
[3]; Aw>0.9, equal mass ratios
  Relative stability, Form K vs Form C slurry: more stable

## CC(=O)N/C(N)=N/C(=N\S(=O)(=O)c1ccc(C(F)(F)F)cc1)N1C[C@H](c2ccccc2)C(c2ccc(Cl)cc2)=N1 [Form D, N-{[(S)-{[3-(4-chlorophenyl)-4-phenyl-4,5-dihydro-1H-pyrazol-1-yl][4-(trifluoromethyl)benzenesulfonamido]methylidene}amino]methanimidoyl}acetamide]
[2]
  Relative thermodynamic stability of anhydrates (outcome of slurry competition): conversion of all anhydrates to Form C

## CC(=O)N/C(N)=N/C(=N\S(=O)(=O)c1ccc(C(F)(F)F)cc1)N1C[C@H](c2ccccc2)C(c2ccc(Cl)cc2)=N1 [Form E, N-{[(S)-{[3-(4-chlorophenyl)-4-phenyl-4,5-dihydro-1H-pyrazol-1-yl][4-(trifluoromethyl)benzenesulfonamido]methylidene}amino]methanimidoyl}acetamide]
[2]
  Relative thermodynamic stability of anhydrates (outcome of slurry competition): conversion of all anhydrates to Form C

## CC(=O)N/C(N)=N/C(=N\S(=O)(=O)c1ccc(C(F)(F)F)cc1)N1C[C@H](c2ccccc2)C(c2ccc(Cl)cc2)=N1 [Form G, N-{[(S)-{[3-(4-chlorophenyl)-4-phenyl-4,5-dihydro-1H-pyrazol-1-yl][4-(trifluoromethyl)benzenesulfonamido]methylidene}amino]methanimidoyl}acetamide]
[4]
  Solid form conversion upon ambient drying: converted to Form F

## CC(=O)N/C(N)=N/C(=N\S(=O)(=O)c1ccc(C(F)(F)F)cc1)N1C[C@H](c2ccccc2)C(c2ccc(Cl)cc2)=N1 [Form H, N-{[(S)-{[3-(4-chlorophenyl)-4-phenyl-4,5-dihydro-1H-pyrazol-1-yl][4-(trifluoromethyl)benzenesulfonamido]methylidene}amino]methanimidoyl}acetamide]
[4]
  Solid form conversion upon ambient drying: converted to Form D

## CC(=O)N/C(N)=N/C(=N\S(=O)(=O)c1ccc(C(F)(F)F)cc1)N1C[C@H](c2ccccc2)C(c2ccc(Cl)cc2)=N1 [Form I, N-{[(S)-{[3-(4-chlorophenyl)-4-phenyl-4,5-dihydro-1H-pyrazol-1-yl][4-(trifluoromethyl)benzenesulfonamido]methylidene}amino]methanimidoyl}acetamide]
[4]
  Solid form conversion upon ambient drying: converted to Form B

## CC(=O)N/C(N)=N/C(=N\S(=O)(=O)c1ccc(C(F)(F)F)cc1)N1C[C@H](c2ccccc2)C(c2ccc(Cl)cc2)=N1 [Form K, N-{[(S)-{[3-(4-chlorophenyl)-4-phenyl-4,5-dihydro-1H-pyrazol-1-yl][4-(trifluoromethyl)benzenesulfonamido]methylidene}amino]methanimidoyl}acetamide]
[3]
  Stability of the hydrate (conclusion of critical water activity experiments): not a stable hydrate
[3]; 0.1<Aw<0.9, equal mass ratios
  Relative stability, Form K vs Form C slurry: more stable
[3]; acetone/H2O, Aw=0.5 and 0.9
  Outcome of Form K and Form C slurry: conversion to Form C

## CC(=O)N/C(N)=N/C(=N\S(=O)(=O)c1ccc(C(F)(F)F)cc1)N1C[C@H](c2ccccc2)C(c2ccc(Cl)cc2)=N1 [Form N, N-{[(S)-{[3-(4-chlorophenyl)-4-phenyl-4,5-dihydro-1H-pyrazol-1-yl][4-(trifluoromethyl)benzenesulfonamido]methylidene}amino]methanimidoyl}acetamide]
[2]
  Relative thermodynamic stability of anhydrates (outcome of slurry competition): conversion of all anhydrates to Form C

## CC(=O)N/C(N)=N/C(=N\S(=O)(=O)c1ccc(C(F)(F)F)cc1)N1C[C@H](c2ccccc2)C(c2ccc(Cl)cc2)=N1 [Form P, N-{[(S)-{[3-(4-chlorophenyl)-4-phenyl-4,5-dihydro-1H-pyrazol-1-yl][4-(trifluoromethyl)benzenesulfonamido]methylidene}amino]methanimidoyl}acetamide]
[4]
  Solid form conversion upon ambient drying: converted to Form E

## CC(=O)N/C(N)=N/C(=N\S(=O)(=O)c1ccc(C(F)(F)F)cc1)N1C[C@H](c2ccccc2)C(c2ccc(Cl)cc2)=N1 [Form Q, N-{[(S)-{[3-(4-chlorophenyl)-4-phenyl-4,5-dihydro-1H-pyrazol-1-yl][4-(trifluoromethyl)benzenesulfonamido]methylidene}amino]methanimidoyl}acetamide]
[2]
  Relative thermodynamic stability of anhydrates (outcome of slurry competition): conversion of all anhydrates to Form C
